Active and inactive are the calls of the source. The rule behind the calls is not given here.

Consider ten compounds from ChEMBL document CHEMBL3739421, “Discovery of oxybisbenzoylamides as a new class of antimalarial agents” (Medchemcomm, 2015).

Data set [1] deals with Plasmodium falciparum. Kind of data set: Antimalarial activity against Chloroquine-resistant Plasmodium falciparum W2 assessed as parasite growth inhibition after 72 hrs by lactate dehydrogenase assay. It counts as functional, organism-based. Particulars: W2, 72 h.
Data set [2] has as its system Plasmodium falciparum. Briefly: Antimalarial activity against Chloroquine-sensitive Plasmodium falciparum D10 assessed as parasite growth inhibition after 72 hrs by lactate dehydrogenase assay. The class given is functional, organism-based. Particulars: D10, 72 h.
For data set [3], the target named is Plasmepsin II (Plasmodium falciparum) (UniProt P46925). Briefly: Inhibition of Plasmodium falciparum recombinant PLM2 expressed in Escherichia coli BL21(DE3) pLysS cells using Lys-GluPhe-Val-Phe-NPhe-Ala-Leu-Lys as substrate at 1 uM by spectrophotometry.
Chain of Plasmepsin II (Plasmodium falciparum) (P46925 125-453 limits assumed): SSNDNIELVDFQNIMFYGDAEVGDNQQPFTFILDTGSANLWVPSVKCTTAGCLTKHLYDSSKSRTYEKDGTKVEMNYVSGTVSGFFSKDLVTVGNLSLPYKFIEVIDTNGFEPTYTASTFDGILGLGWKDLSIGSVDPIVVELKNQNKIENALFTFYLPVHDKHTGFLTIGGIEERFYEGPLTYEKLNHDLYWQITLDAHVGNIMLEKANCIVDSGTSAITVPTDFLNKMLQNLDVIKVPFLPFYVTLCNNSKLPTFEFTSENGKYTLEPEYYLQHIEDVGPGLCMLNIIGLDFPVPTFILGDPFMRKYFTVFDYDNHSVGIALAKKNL
A short description of data set [4]: Inhibition of beta-haematin formation after 18 hrs by spectrophotometric analysis relative to haematin. It counts as physicochemical.
A short description of data set [5]: Therapeutic index, ratio of IC50 for HMEC1 cells to IC50 for Chloroquine-resistant Plasmodium falciparum W2. It counts as cell-based. The conditions noted are these: human; read-out: Ratio IC50.
The nature of data set [6]: Therapeutic index, ratio of IC50 for human fibroblasts to IC50 for Chloroquine-sensitive Plasmodium falciparum D10. Particulars: read-out: Ratio IC50.
Data set [7] in a line: Therapeutic index, ratio of IC50 for human fibroblasts to IC50 for Chloroquine-resistant Plasmodium falciparum W2. The conditions noted are these: read-out: Ratio IC50.
Data set [8] is described as follows: Cytotoxicity against human fibroblasts assessed as growth inhibition after 72 hrs by MTT assay. The class given is cell-based. Particulars: Fibroblast. (In general: Formazan colour is commonly taken as a measure of viable cells.)
The nature of data set [9]: Cytotoxicity against human HMEC1 cells assessed as growth inhibition after 72 hrs by MTT assay. It counts as cell-based. Particulars: HMEC-1, 72 h.
A short description of data set [10]: Therapeutic index, ratio of IC50 for HMEC1 cells to IC50 for Chloroquine-sensitive Plasmodium falciparum D10. The class given is cell-based. The conditions noted are these: human; read-out: Ratio IC50.

With `CCN(CC)CCNC(=O)[C@H](CC(C)C)NC(=O)c1ccc(Oc2ccccc2)cc1`, the IC50 in data set [1] and in data set [2] was over 5 µg/mL each time.

As to `CCCCNC(=O)[C@H](CC(C)C)NC(=O)[C@@H](NC(=O)c1ccc(Oc2ccc(C(=O)N[C@H](C(=O)N[C@@H](CC(C)C)C(=O)NCCCC)[C@@H](C)CC)cc2)cc1)[C@@H](C)CC`, the IC50 came out at 1620 nM in data set [1] and 1980 nM in [2].

In the case of `CCCCNC(=O)[C@H](CC(C)C)NC(=O)[C@@H](NC(=O)c1ccc(Oc2ccc(C(=O)N[C@@H](CC(C)C)C(=O)N[C@@H](C)C(=O)NCCCNc3ccnc4ccccc34)cc2)cc1)[C@@H](C)CC`, the IC50 in data set [1] was found to be 54 nM; in [2], 63 nM. Besides, in data set [3], the inhibition result is “inactive”.

With `CCCCNC(=O)[C@H](CC(C)C)NC(=O)[C@@H](NC(=O)c1ccc(Oc2ccc(C(=O)N[C@@H](CC(C)C)C(=O)N[C@@H](C)C(=O)NCCN(CC)CC)cc2)cc1)[C@@H](C)CC`, the IC50 in data set [1] was determined as 143 nM; in data set [2], 345 nM.

On to `COc1cc(NC(C)CCCN)c2ncccc2c1` (stereo not drawn) [PRIMAQUINE], for which, in data set [4], the IC50 is over 10 equiv.

Regarding `CCCCNC(=O)[C@H](CC(C)C)NC(=O)[C@@H](NC(=O)c1ccc(Oc2ccc(C(=O)N[C@@H](C)C(=O)NCCCNc3ccnc4cc(Cl)ccc34)cc2)cc1)[C@@H](C)CC`, the selectivity ratio in [5], in data set [6], in data set [7] and in data set [10] was 450 in each case. For the same compound, the IC50 is 0.79 equiv in data set [4]; 39 nM in [1]; 18000 nM in [8]; 17600 nM in [9]; 43 nM in [2]. For the same compound, in data set [3], the inhibition entry is “inactive”.

For the compound `CCCCNC(=O)[C@H](CC(C)C)NC(=O)c1ccc(Oc2ccc(C(=O)N[C@@H](CC(C)C)C(=O)NCCN(CC)CC)cc2)cc1`, the IC50 in [1] was determined as 314 nM; in data set [8] it was 23000 nM; in data set [2], 357 nM.

`CCCCNC(=O)[C@H](CC(C)C)NC(=O)[C@@H](NC(=O)c1ccc(Oc2ccc(C(=O)N[C@@H](CC(C)C)C(=O)NCCCN(CC)CC)cc2)cc1)[C@@H](C)CC`: the selectivity ratio in data set [6] and in data set [7] was over 100 in each case. Further, the IC50 in data set [1] came out at 103 nM; in data set [8], 16300 nM; in data set [2] it was 121 nM.

Compound `CCN(CC)CCCC(C)Nc1ccnc2cc(Cl)ccc12` (stereo not drawn) [CHLOROQUINE] returned an IC50 in [4] of 1.36 equiv.

Take `CCCCNC(=O)[C@H](CC(C)C)NC(=O)[C@@H](NC(=O)c1ccc(Oc2ccc(C(=O)N[C@@H](CC(C)C)C(=O)N[C@@H](C)C(=O)NCCCC(C)Nc3cc(OC)cc4cccnc34)cc2)cc1)[C@@H](C)CC` (stereo partly drawn): the IC50 in data set [4] was over 8 equiv; in data set [1] it was 104 nM; in data set [2], 37 nM. The inhibition result in data set [3] is “inactive”.
